# Measured values: paper PMC10397409, “The action of physiological and synthetic steroids on the calcium channel CatSper in human sperm” (Frontiers in Cell and Developmental Biology, 2023)
# Where two headings read alike, the source gives them in different places.
# Key:
# Assay type in all cases: cell-based
# [1] = biological target: T1, CatSper (Homo sapiens, UniProt Q7RTX7+Q86XQ3+Q8NEC5+Q96P56); experiment: Inhibition of P4-induced Ca2+ influx in human sperm (screen 2 inhibitors)
# T1 construct: Motile spermatozoa were selected by a ‘swim-up’ procedure; endogenous in cells; host or cells: motile human spermatozoa (swim-up) from healthy donors
# Method: (§1) Briefly, motile spermatozoa were selected by swim-up and labeled with the fluorescent calcium indicator Fluo-4 a.m. to image changes in [Ca^2+]i. After centrifugation to remove excess dye, Fluo-4 AM loaded cells were distributed in a 384-wells plate to obtain ∼125,000 cells/well. After measuring basal fluorescence, a first injection of compounds was performed in order to evaluate their effect on [Ca^2+]i alone. This first screen is therefore considered as a screen to search for ‘activators’. Fluorescence was recorded for 12 min during which sperm cells were continuously exposed to compounds. P4 or PGE1 were then added in the same wells to evaluate whether the tested compounds can reduce the ligand-induced activation of CatSper. This second screen was therefore considered to be a search for CatSper ‘inhibitors’.
# (§2) Human semen samples were collected from healthy donors by masturbation after a recommended sexual abstinence period of minimum 2 days. Semen samples were allowed to liquefy at 37°C for 15–30 min. Motile spermatozoa were selected by a ‘swim-up’ procedure as previously described ([Strünker et al., 2011]). Briefly, 1 mL of semen was deposited in a 45°-inclined 50 mL Falcon tube with 4 mL of Human Tubular Fluid (HTF) medium containing: 93.8 mM NaCl, 4.7 mM KCl, 0.2 mM MgSO4, 0.37 mM KH2PO4, 2.04 mM CaCl2, 20.98 mM HEPES, 2.78 mM glucose, 21.4 mM Na-lactate, 4 mM NaHCO3, 0.33 mM Na-pyruvate, and the pH was adjusted to 7.35. Motile sperm were allowed to swim at 37°C for 1 hour. The supernatant was collected in 15 mL Falcon tubes and washed twice by centrifugation at 700 x g for 20 min. Sperm were supplemented with 3 mg/mL HSA. Written informed consent was obtained from all donors prior to donation and approved by the Cantonal Ethics Committee of the State of Geneva (CCER #14-147).
# (§3) Cells were loaded with the fluorescent Ca^2+ indicator Fluo-4 AM at a final concentration of 2.5 µM for 30 min at 37°C. Excess dye was washed via centrifugation at 700 x g for 20 min and sperm were resuspended in HTF medium to obtain a final concentration of 6.25 x 10^6 cells/mL. 20 μL of cells (corresponding to ∼125,000 cells) loaded with Fluo-4 a.m. were dispensed in a 384-wells plate (Corning, NY, United States) to allow fluorescence measurement. The dye was excited at 480 nm, and emission was recorded at 530 nm. The change in [Ca^2+]i was assessed simultaneously in all wells using a Functional Drug Screening System (FDSS/μCELL) (Hamamatsu Phototonics K.K., Yokohama, Japan) at 37°C. Basal fluorescence was first measured for 30 s. […] P4 and PGE1 were tested at a near-saturating concentration in the HTS in order to evaluate a potential additive or synergistic effect induced by the compounds. Non-specific CatSper inhibitor MDL 12330A was used as a negative control at final concentration of 20 µM while DMSO was used as a vehicle control. For alkalization-induced Ca^2+ measurement, NH4Cl was used as a positive control at a final concentration of 10 mM. Fluorescence was recorded for a total of 16.5 min: 30 s before injection, 12 min after the first injection of the tested compounds, and 4 min after the second injection of either P4 or PGE1. The Prestwick library was tested in technical duplicate. Ca^2+ response curves were normalized using the following formula F−F0/F0×100 , where F 0 is the average of the basal fluorescence prior to the addition of the compound of interest and F corresponds to the fluorescence value at each time point. The ∆F/F0 of the vehicle control (DMSO) was subtracted from all the other values to adjust for dilution and pipetting artifacts. The values of all compounds were normalized to their respective controls.
# [2] = biological target: T1, CatSper; experiment: Steroid-induced increase in [Ca2+]i in human sperm (Fluo-4 HTS assay, screen 1 activators); settings: for Emax: read-out: Max amplitude (%) (± SD)
# Method: as §1
# Human semen samples were collected from healthy donors by masturbation after a recommended sexual abstinence period of minimum 2 days. Semen samples were allowed to liquefy at 37°C for 15–30 min. […] Motile sperm were allowed to swim at 37°C for 1 hour. The supernatant was collected in 15 mL Falcon tubes and washed twice by centrifugation at 700 x g for 20 min. Sperm were supplemented with 3 mg/mL HSA.
# as §3, with “20” for “Cells were loaded with the fluorescent Ca^2+ indicator Fluo-4 AM at a final concentration of 2.5 µM for 30 min at 37°C. Excess dye was washed via centrifugation at 700 x g for 20 min and sperm were resuspended in HTF medium to obtain a final concentration of 6.25 x 10^6 cells/mL. 20”, “Non-specific CatSper inhibitor MDL 12330A was used as a negative control at final concentration of 20 µM while DMSO was used as a vehicle control.” left out, “Fluorescence was recorded for a total of 16.5 min: 30 s before injection, 12 min after the first injection of the tested compounds, and 4 min after the second injection of either P4 or PGE1.” left out
# Data are shown as mean ± standard deviation (SD) with “n” referring to the number of independent experiments performed using sperm samples from ≥3 different donors. Statistical analysis and fitting of dose-response relations were performed using GraphPad Prism 8.1.1 (Prism, La Jolla, United States). To generate sigmoidal curves, the concentrations were converted to their respective log values, and the data were normalized using the following formula: 100⋅x/Fmax , where Fmax is the maximum value of the positive control. A four-parameter Hill equation with a variable Hill coefficient was fitted to generate the EC02, EC50, and IC50. Statistical significance between control and treated conditions was evaluated using a one-way analysis of variance (ANOVA), followed by Dunnett´s test. A p-value <0.05 was considered significant.
# [3] = biological target: T1, CatSper; experiment: Inhibition of PGE1-induced Ca2+ influx in human sperm (screen 2 inhibitors)
# Method: as §1, §2, §3
# [4] = Mean IC50 (P4) µM (±SD), P4-induced response, pooled from 3 independent experiments
# [5] = EC50 (±SD), increase in [Ca2+]i, dose-response 90 µM to 0.3 nM
# [6] = Mean EC50 µM (±SD), pooled from 3 independent experiments
# [7] = maximal amplitude of steroid-induced [Ca2+]i increase, relative to P4, 3 independent experiments
# [8] = P4-induced response, pooled from 3 independent experiments, read-out: Mean IC50 (P4) µM (±SD)
# [9] = pooled from 3 independent experiments, read-out: Mean EC50 µM (±SD)
Compound,Max P4 inhibition (%) (± SD) ([1]; 3 independent experiments),"IC50 [1, 4] [µM]",Emax [2] [%],"Emax [2, 7] [%]","IC50 [1, 8] [µM]","EC50 [2, 9] [µM]",further results
"CC(=O)O[C@H]1CC[C@@]2(C)C(=CC[C@@H]3[C@@H]2CC[C@]2(C)C(=O)CC[C@@H]32)C1 [Dehydroisoandosterone 3-acetate (DHEA), Dehydroisoandosterone 3-acetate]",82 (±6) %,1.69,77,–,–,–,"EC02 compared with reported maximum concentration in blood serum [2]: EC02 below the reported maximum concentration found in blood serum; EC50 [2, 5]: 0.593 µM; EC50 [2, 6]: 0.584 µM; IC50 [3]: 3.7 µM"
CC(=O)[C@H]1CC[C@H]2[C@@H]3C=CC4=CC(=O)CC[C@@]4(C)[C@@H]3CC[C@]12C [Dydrogesterone],94 (±4) %,0.24,–,84,–,–,"IC50 ([1]; IC50 (±SD), inhibition of P4-induced Ca2+ response, dose-response 90 µM to 0.3 nM): 0.245 µM; EC02 compared with reported maximum concentration in blood serum [2]: EC02 below the reported maximum concentration found in blood serum; effective concentrations as low as (dose-dependent increase in [Ca2+]i) [2]: 10 nM; EC50 [2, 5]: 0.13 µM; EC50 [2, 6]: 0.104 µM; IC50 [3]: 44.8 µM"
C[C@]12CC[C@@H](O)C[C@@H]1CC[C@@H]1[C@@H]2CC[C@]2(C)C(=O)CC[C@@H]12 [androsterone],61 (±6) %,2.11,70,–,–,–,"EC50 [2, 6]: 1.02 µM; IC50 [3]: 5.38 µM"
CCCC1O[C@@H]2C[C@H]3[C@@H]4CCC5=CC(=O)C=C[C@]5(C)[C@H]4[C@@H](O)C[C@]3(C)[C@]2(C(=O)CO)O1 (stereo partly drawn) [budesonide],3 (±8) %,–,–,7,–,–,"IC50 ([3]; PGE1-induced response, pooled from 3 independent experiments, read-out: Mean IC50 (PGE1) µM (±SD)): > 100 µM"
C#C[C@]1(O)CC[C@H]2[C@@H]3CCC4=CC(=O)CC[C@]4(C)[C@H]3CC[C@@]21C [ethisterone],10 (±9) %,–,8,–,5.13,–,–
C#C[C@]1(O)CC[C@H]2[C@@H]3CCc4cc(OC)ccc4[C@H]3CC[C@@]21C [ethynylestradiol 3-methyl ether],4 (±3) %,–,–,9,–,–,–
C=C1C[C@@H]2[C@H](CC[C@]3(C)C(=O)CC[C@@H]23)[C@@]2(C)C=CC(=O)C=C12 [exemestane],–,–,63,–,0.309,0.557,Max P4 inhibition (%) (± SD) [1]: 56 (±2) %
CC(=O)[C@@]1(O)CC[C@H]2[C@@H]3C[C@H](C)C4=CC(=O)C=C[C@]4(C)[C@@]3(F)[C@@H](O)C[C@@]21C [fluorometholone],29 (±12) %,–,–,42,6.51,0.702,–
C[C@]12CCC(=O)C(O)=C1CC[C@@H]1[C@@H]2CC[C@]2(C)C(=O)CC[C@@H]12 [formestane],70 (±8) %,1.22,71,–,–,–,"EC50 [2, 6]: 0.353 µM"
C[C@]12CC[C@@H]3c4ccc(O)cc4C[C@@H](CCCCCCCCC[S+]([O-])CCCC(F)(F)C(F)(F)F)[C@H]3[C@@H]1CC[C@@H]2O (stereo partly drawn) [fulvestrant],22 (±6) %,–,–,28,6.95,2.24,–
C#C[C@]1(O)CC[C@H]2[C@@H]3CCC4=CC(=O)CCC4=C3C=C[C@@]21CC [gestrinone],11 (±21) %,33.6,2,–,–,–,–
C[C@H](CCC(=O)O)[C@H]1CC[C@H]2[C@@H]3CC[C@@H]4C[C@H](O)CC[C@]4(C)[C@H]3CC[C@]12C [lithocholic acid],–,–,59,–,–,–,Max P4 inhibition (%) (± SD) [1]: 32 (±10) %
CC(=O)O[C@]1(C(C)=O)CC[C@H]2[C@@H]3C=C(C)C4=CC(=O)CC[C@]4(C)[C@H]3CC[C@@]21C [megestrol acetate],-4 (±11) %,–,–,3,–,–,–
CC#C[C@]1(O)CC[C@H]2[C@@H]3CCC4=CC(=O)CCC4=C3[C@@H](c3ccc(N(C)C)cc3)C[C@@]21C [mifepristone],–,–,9,–,11,13.5,Max P4 inhibition (%) (± SD) [1]: 25 (±25) %
C#C[C@]1(O)CC[C@H]2[C@@H]3CCC4=CC(=O)CC[C@@H]4[C@H]3CC[C@@]21C [norethindrone],–,–,28,–,4.35,6.05,Max P4 inhibition (%) (± SD) [1]: 22 (±5) %
norgestrel-(-)-d,3 (±5) %,–,–,–,75.6,–,"Max amplitude (%) (± SD) [2, 7]: 5 (±3) %"
